Experimental data: patent US20150174202A1, “Methods and Compositions for Modulating Beta Cell Proliferation” (The Board of Trustees of the Leland Stanford Junior …, priority 2011, published 2015)
Entries after “also recorded” stand apart in the source; their conditions may differ.

Tests used:
Assay type in all cases: cell-based
[1] = tested on: human islet β-cells; assay: In vitro human islet β-cell proliferation (BrdU incorporation); details: PDGF-AA 50 ng/ml, 2 days
Description: For islet studies, human islets were isolated either at Pittsburgh University Medical Center or the University of Alabama, Birmingham. Eight independent human islet preparations from juvenile donors at the age of 8 months, 1.0, 1.5, 2, 3, 4, 5 and 6 years, and three adult islet preparations from donors at the age of 39, 48 and 56 years were used in this study. After isolation, fresh islets were hand-picked and transferred to RPMI-1640 medium supplemented with 0.5% FBS, 0.2% BSA and 2% penicillin/streptomycin for an overnight recovery before experiments. […] To detect in vitro human islet β-cell proliferation stimulated by PDGF-AA, human islets were exposed to 50 μM BrdU for 24 h. Afterwards, human islets were processed in a similar way as in mouse islet studies for immunostaining of insulin, glucagon, PDX1 and BrdU. β-Cell proliferation rate was determined by quantifying percentage of insulin+ cells with BrdU+. More than 50 islets per group were counted for determining cultured human islet β-cell proliferation rate.

[2] = tested on: mouse islet β-cells; assay: In vitro mouse islet β-cell proliferation (BrdU incorporation); details: juvenile (3 week-old) mouse islets, PDGF-AA 50 ng/ml, 2 days
Protocol: Mouse pancreatic islets were purified as described in Chen et al. (2009) Genes Dev. 23, 975-985 and used immediately for assays described in the text. To study Ezh2 induction in cultured islets exposed to mitogens, freshly isolated islets from 2-3-week old, and 7-12-month old C57BL/6 mice were recovered and equilibrated overnight at 37° C., 5% CO2 in RPMI-1640 medium supplemented with 0.5% fetal bovine serum (FBS), 0.2% bovine albumin (BSA) and 2% penicillin/streptomycin. Afterwards, islets were distributed into microplates or dishes, and treated with recombinant human PDGF-AA, prolactin or insulin (Sigma), with or without addition of pharmacological inhibitors, including Sunitinib (Selleck), […]0126 (Sigma), LY294002 (Sigma) or U-73122 (Sigma) at the indicated concentrations. Two days later, islets were harvested for RNA or protein extraction for real-time RTPCR or western blot analyses. To detect phosphorylation of Pdgfr-α by western blot, islets were exposed to PDGF-AA (with or without indicated pharmacological inhibitors) for 90 min before islet harvesting and protein extraction. To detect in vitro islet β-cell proliferation stimulated by PDGF-AA, a final concentration of 50 μM BrdU was introduced into each culture dish 24 h before harvest, followed by standard histological processing. Immunostaining of BrdU and insulin was performed on processed islets, and β-cell proliferation rate was determined by quantifying percentage of insulin+ cells with BrdU+. […] For measuring pancreatic β-cell mass or BrdU by morphometry, three to six mice for each group were analysed. At least five sections separated by more than 300 μm (pancreases) or 50 μm (cultured islets) were immunostained and assessed for each sample. Images were analysed with an ImagePro program by observers blinded to genotype, and pancreatic β-cell mass and percentage of BrdU+β-cells were calculated as described in Chen et al. Polycomb protein Ezh2 regulates pancreatic 6-cell Ink4a/Arf expression and regeneration in diabetes mellitus. […]

[3] = tested on: Ezh2; assay: Ezh2/Ezh1 expression in cultured mouse islets (real-time RT-PCR, western blot)
Protocol: Mouse pancreatic islets were purified as described in Chen et al. (2009) Genes Dev. 23, 975-985 and used immediately for assays described in the text. To study Ezh2 induction in cultured islets exposed to mitogens, freshly isolated islets from 2-3-week old, and 7-12-month old C57BL/6 mice were recovered and equilibrated overnight at 37° C., 5% CO2 in RPMI-1640 medium supplemented with 0.5% fetal bovine serum (FBS), 0.2% bovine albumin (BSA) and 2% penicillin/streptomycin. Afterwards, islets were distributed into microplates or dishes, and treated with recombinant human PDGF-AA, prolactin or insulin (Sigma), with or without addition of pharmacological inhibitors, including Sunitinib (Selleck), […]0126 (Sigma), LY294002 (Sigma) or U-73122 (Sigma) at the indicated concentrations. Two days later, islets were harvested for RNA or protein extraction for real-time RTPCR or western blot analyses. To detect phosphorylation of Pdgfr-α by western blot, islets were exposed to PDGF-AA (with or without indicated pharmacological inhibitors) for 90 min before islet harvesting and protein extraction. To detect in vitro islet β-cell proliferation stimulated by PDGF-AA, a final concentration of 50 μM BrdU was introduced into each culture dish 24 h before harvest, followed by standard histological processing. Immunostaining of BrdU and insulin was performed on processed islets, and β-cell proliferation rate was determined by quantifying percentage of insulin+ cells with BrdU+. Culture experiments of human islets were performed using a similar procedure described later. Total RNA from freshly isolated or cultured islets after indicated treatments were purified using the Absolutely RNA miniprep purification kit (Stratagene) according to the manufacturer's instructions. RNA concentration was measured with a RiboGreen RNA quantification assay (Invitrogen). One-step quantitative RT-PCR was performed and analysed using an ABI Prism 7300 detection system (Applied Biosystems) with TaqMan one-step RTPCR Master Mix Reagents and appropriate amounts (10-100 ng) of islet total RNA as the template. We calculated the ratio of mRNA for the gene of interest to the amount of internal control mRNA of peptidylprolyl isomerase A (cyclophilin A, PPIA), and then normalized the ratio for each gene to its median. For western blots, total islet protein was prepared from freshly isolated or cultured islets after indicated treatments as described in Chen et al. (2009) Genes Dev. 23, 975-985. Equal amounts of protein were resolved on SDS-PAGE and transferred to polyvinylidine fluoride membranes (Amersham Pharmacia) for immunoblotting with specific antibodies, including rabbit polyclonal anti-human Ezh2 (1:1,000, Millipore), rabbit polyclonal anti-phospho-PDGFR-α ([…]) (1:1,000, Santa Cruz Biotechnologies), rabbit monoclonal anti-PDGFR-α (1:1,000, Cell Signaling), mouse monoclonal anti-β-actin (1:4,000, Sigma), rabbit monoclonal anti-Akt (1:1,500, Cell Signaling), rabbit monoclonal anti-phospho-Ark ([…]) (1:1,000, Cell Signaling), rabbit monoclonal anti-p44/42 MAPK (Erk1/2) (1:1,500, Cell Signaling), rabbit monoclonal anti-phospho-p44/42 MAPK (Erk1/2) […]) (1:1,000, Cell Signaling), rabbit monoclonal anti-PLCγ1 (1:1,000, Cell Signaling) and rabbit monoclonal anti-phospho-PLCγ1 ([…]) (1:1,000, Cell Signaling). Signal was visualized using ECL detection (Amersham Pharmacia) on Kodak film after further incubation with HRP-conjugated secondary antibodies. For phospho-PDGFR-α ([…]) and PDGFR-α detection, signal was amplified by incubating the membrane with biotinylated anti-rabbit-IgG (1:2,000), followed with an incubation with HRP-avidin (1:2,000, Vector Laboratories) and then ECL visualization.

PDGF-AA: recombinant human PDGF-AA, a homodimer of PDGF alpha polypeptides
β-cell proliferation ([1]; adult human islets): did not alter | β-cell BrdU incorporation compared to vehicle-exposed controls ([1]; juvenile human islets): sixfold increase | identity of proliferating BrdU+ cells stimulated by PDGF-AA ([1]; juvenile human islets, confocal microscopy): predominantly β-cells; also recorded: majority of PDGF-AA stimulated proliferating islet cells were PDX1+cells | β-cell proliferation assessed by BrdU incorporation [2]: increased β-cell proliferation in juvenile islets; also recorded: induces | Ezh2 mRNA and protein levels ([3]; 3-week-old (juvenile) mouse islets, 2 days exposure): increased; also recorded: induces | Ezh1 expression ([3]; 3-week-old mouse islets, 2 days exposure): but not Ezh1 expression | Ezh2 mRNA and protein levels ([3]; 7- or 9-month-old adult mouse islets exposed to PDGF-AA): not significantly increased
